Experimental data published in US20050267072A1, “Pharmaceutical compositions containing dually acting inhibitors of neutral endopeptidase for the treatment of sexual dysfunction” (Solvay Pharmaceuticals GmbH, priority 2004, published 2005).
Where two headings read alike, the source gives them in different places.

What was measured:
[1] = molecular target: T1, hSEP (His6-tagged hSEP ectodomain) (Homo sapiens, UniProt Q495T6); test: Inhibition of enzymatic breakdown of CNP and VIP by hSEP (in vitro enzymatic assay, HPLC); type: biochemical; conditions: 15 min preincubation, 60 min at 37° C.
T1 construct: His6-tagged hSEP ectodomain; His6; purchased Innogenetics, Ghent, Belgium
T1 sequence (Q495T6 49-779 limits assumed): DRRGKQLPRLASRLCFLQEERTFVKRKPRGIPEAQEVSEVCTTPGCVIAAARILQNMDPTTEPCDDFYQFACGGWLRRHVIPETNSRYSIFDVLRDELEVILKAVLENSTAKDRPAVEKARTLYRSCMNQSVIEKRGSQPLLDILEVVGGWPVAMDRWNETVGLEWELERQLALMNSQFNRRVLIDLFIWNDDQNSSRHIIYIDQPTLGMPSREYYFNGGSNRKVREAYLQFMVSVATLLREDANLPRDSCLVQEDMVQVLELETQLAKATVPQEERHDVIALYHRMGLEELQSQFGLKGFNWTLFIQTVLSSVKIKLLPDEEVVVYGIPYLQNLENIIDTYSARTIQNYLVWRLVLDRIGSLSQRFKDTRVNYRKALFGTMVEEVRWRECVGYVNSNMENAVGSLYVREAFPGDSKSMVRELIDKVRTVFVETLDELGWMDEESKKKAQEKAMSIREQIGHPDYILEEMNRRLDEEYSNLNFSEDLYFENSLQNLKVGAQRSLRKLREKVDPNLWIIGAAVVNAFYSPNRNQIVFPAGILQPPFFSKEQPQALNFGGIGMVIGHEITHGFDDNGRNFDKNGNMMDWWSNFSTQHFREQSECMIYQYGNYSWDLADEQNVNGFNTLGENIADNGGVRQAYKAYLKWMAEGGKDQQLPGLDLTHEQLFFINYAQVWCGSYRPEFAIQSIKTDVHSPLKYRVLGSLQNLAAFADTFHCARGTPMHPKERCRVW
Experimental: (§1) 1. Inhibition of Enzymatic Breakdown of CNP and VIP by the Test Compounds
(§2) The inhibition of the enzymatic breakdown of CNP and VIP by the test compounds of Formula I according to the invention was measured in an enzymatic in vitro assay according to the following protocol:
(§3) • a) hSEP (sol hu)(his)6; or: His6-tagged hSEP ectodomain. • stock solution: 53 μg/ml in 20 mM HEPES pH 7.2, 5% glycerol, 0.005% Tween20, 100 mM NaCl, purity>99% • working solution: stock solution diluted with assay buffer to 5 μg/ml • Supplier: Innogenetics, Ghent, Belgium. Preparation and purification of the protein were performed as described in WO 02/094176. • b) NEP (prepared from pig kidney cortex) • stock solution: 120 μg/ml in 20 mM bisTris, purity>95% • working solution: stock solution diluted with assay buffer to 5 μg/ml • Supplier: Dr. Philippe Crine, Univ. of Montreal, Canada Substrates: • a) VIP • b) CNP (32-53) • stock solution: 100 μM in assay buffer • Supplier: Bachem, Weil am Rhein, Germany
(§4) Assay buffer: 100 mM Tris pH 7.0, 250 mM NaCl
(§5) All test compounds were dissolved in DMSO at 10 mM and further diluted with assay buffer.
(§6) 70 μl of assay buffer, 10 μl of enzyme working solution (NEP or hSEP) and 10 μl of a test compound solution were mixed in an Eppendorf vial and preincubated at 37° C. for 15 minutes. Then, 10 μl of peptide stock solution (VIP or CNP) was added and the reaction mixture was incubated at 37° C. for 60 min. to allow enzymatic hydrolysis. The enzymatic reaction was subsequently terminated by heating to 95° C. for 5 min. After centrifugation (Heraeus Biofuge B, 3 min) the supernatant was subjected to HPLC.
(§7) For separating the remaining substrate from the cleavage products, a reversed phase HPLC technique with a CC 125/4 Nucleosil 300/5 C18 RP column and a CC 8/4 Nucleosil 100/5 C18 precolumn (Macherey-Nagel, Duren, Germany) was used. 60 μl of the reaction samples were injected into the HPLC and the column was eluted at a flow rate of 1 ml/min with the following gradient: […]
(§8) All peptides were detected by absorbance at 214 nm (UV spectroscopy).
(§9) Basis of the calculation of % inhibition is the peak area of the undegraded peptide (VIP or CNP) for an inhibitor containing sample X in comparison to samples containing only peptide (blank) or peptide and enzyme without inhibitor (control) according to the following equation: % inhib=100*(X−control)/(blank−control)
(§10) All samples were run in duplicate and mean values were used. A solvent control (0.1% DMSO) was added to each assay run.

[2] = molecular target: T2, NEP (prepared from pig kidney cortex) (Sus scrofa, UniProt A0A4X1SQE6); test: Inhibition of enzymatic breakdown of CNP and VIP by NEP (in vitro enzymatic assay, HPLC); type: biochemical; conditions: 15 min preincubation, 60 min at 37° C.
Experimental: as §1, §2, §3, §4, §5, §6, §7, §8, §9, §10

[3] = test system: human corpus cavernosum; test: Big-ET-induced contraction of human cavernosal strips in vitro; type: cell-based; conditions: compounds at 10 μM, 20 min incubation; big-ET-1 10^−8 M; mean of n corpus cavernosum samples
Experimental: 2. Influence of Test Compounds on Big-ET-Induced Contraction of Human Cavernosal Strips In Vitro
Human erectile tissues were obtained from the corpus cavernosum of 9 patients undergoing surgery for implantation of penile prosthesis as treatment of erectile dysfunction or penile congenital curvature. After surgery, the tissue samples were transported and stored at 4° C. in RPMI-1640 medium containing HEPES (23.8 mM), penicillin (100 IU/ml) and streptomycin (0.1 mg/ml) until use (within 24 hours). Eight sections of 4×2×2 mm were excised from the corpus cavernosum of each donor for each experiment. Cavernosal strips were suspended in 5 ml organ chambers filled with Krebs-HEPES buffer. Organ chambers were maintained at 37° C. and continuously bubbled with 95% O2 and 5% CO2 to maintain a pH at 7.4. The cavernosal strips were connected to force transducers for isometric tension recording (Pioden controls Ltd, UK), and an initial tension of 1 g was applied. Following amplification, the tension changes were digitalized via a Mac Lab™/8 using Chart software (AD Instruments Ltd). The tissue preparation were allowed to equilibrate for 90 minutes, while being washed periodically (every 15 minutes) with fresh Krebs-HEPES buffer. When a stable resting tension was attained, the strips were set to at least 500 mg of basal tension. Following the equilibration period, the erectile tissues were primed with KCl 80 mM during 10 min. Once this priming period was achieved, the strips were washed by fresh Krebs-HEPES solution and allowed to re-equilibrate for 30 minutes at 500 mg of tension.
Once the strips were stabilized after the priming period, they were incubated with one of the following compounds (all at 10 μM, unless indicated otherwise) during 20 min: compound of Formula IV, compound of Formula V, SM-19712 (a selective and potent endothelin converting enzyme-1 inhibitor), DL-thiorphan (a selective and potent NEP inhibitor), and the combination of SM-19712, 10 μM and DL-thiorphan, and the common vehicle (phosphate buffer).
The strips were then exposed to the half-maximally effective concentration of big-ET-1 (10^−8 M) determined in the preliminary experiments until a stable response was obtained.
Contractile responses were expressed as absolute change in maximal developed tension (in mg). To reduce the potential heterogeneity of responses between strips, the contraction to big-ET-1 was normalized by the contractile responses to KCl 80 mM obtained during the priming period.
The results are from duplicate or triplicate determinations from a single corpus cavernosum sample were averaged and values are expressed as percentage of the contractile responses induced by 80 mM of KCl, as mean […]SEM, for n corpus cavernosum samples.

[4] = molecular target: T1, hSEP (His6-tagged hSEP ectodomain); test: Activity assay: breakdown of VIP and CNP by hSEP; type: biochemical; conditions: 120 min at 37° C., no inhibitor
Experimental: as §3, §4
(§11) 80 μl of assay buffer, 10 μl of enzyme working solution (NEP or hSEP) and 10 μl of peptide stock solution (VIP or CNP) were mixed in an Eppendorf vial and incubated for 120 min. at 37° C. The enzymatic reaction was subsequently terminated by heating to 95° C. for 5 min. […]
as §8
(§12) The percentage (=%) of hydrolysis was calculated on the basis of the peak area of the undegraded peptide for an enzyme containing sample Y in correlation to a sample containing the same concentration of peptide without enzyme (blank) by the following equation: % hydrolysis=100*(blank−Y) […]

[5] = molecular target: T2, NEP (prepared from pig kidney cortex); test: Activity assay: breakdown of VIP and CNP by NEP; type: biochemical; conditions: 120 min at 37° C., no inhibitor
Experimental: as §3, §4, §11, §8, §12

[6] = test system: patients with ED; conditions: intracavernosal injection, combined with the α-adrenoceptor antagonist phentolamine; cited from earlier work
[7] = substrate CNP (32-53), read-out: inhibition of breakdown of CNP by hSEP IC50
[8] = substrate VIP, read-out: inhibition of breakdown of VIP by hSEP IC50
[9] = inhibition of breakdown of CNP by NEP IC50, substrate CNP (32-53)
[10] = inhibition of breakdown of VIP by NEP IC50, substrate VIP
[11] = substrate CNP (32-53), read-out: inhibition of breakdown of CNP by NEP IC50
[12] = substrate VIP, read-out: inhibition of breakdown of VIP by NEP IC50

T2 sequence (A0A4X1SQE6 entry or part of it): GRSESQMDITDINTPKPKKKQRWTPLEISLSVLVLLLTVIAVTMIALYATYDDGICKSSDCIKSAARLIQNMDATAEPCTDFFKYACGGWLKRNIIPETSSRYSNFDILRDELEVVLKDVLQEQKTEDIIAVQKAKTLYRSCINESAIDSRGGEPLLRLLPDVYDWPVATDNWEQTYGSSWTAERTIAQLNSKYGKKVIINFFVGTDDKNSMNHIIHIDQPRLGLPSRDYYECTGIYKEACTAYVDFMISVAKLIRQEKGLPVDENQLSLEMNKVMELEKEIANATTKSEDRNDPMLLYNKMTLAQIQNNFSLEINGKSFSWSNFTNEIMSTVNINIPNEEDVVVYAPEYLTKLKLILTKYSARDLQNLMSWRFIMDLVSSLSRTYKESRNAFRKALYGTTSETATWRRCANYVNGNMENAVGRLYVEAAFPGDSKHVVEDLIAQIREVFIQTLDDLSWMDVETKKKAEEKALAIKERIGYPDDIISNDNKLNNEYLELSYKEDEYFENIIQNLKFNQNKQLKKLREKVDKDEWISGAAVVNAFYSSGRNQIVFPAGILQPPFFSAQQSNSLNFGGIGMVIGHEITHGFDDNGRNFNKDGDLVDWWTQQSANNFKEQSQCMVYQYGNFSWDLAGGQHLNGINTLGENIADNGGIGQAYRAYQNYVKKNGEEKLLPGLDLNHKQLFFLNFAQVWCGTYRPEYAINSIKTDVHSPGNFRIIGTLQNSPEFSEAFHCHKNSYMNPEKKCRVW

Compound: O=C(O)CNC(=O)C(CS)Cc1ccccc1 (racemic) [thiorphan, reference compound]
- IC50 [1, 7]: > 1000 nM
- IC50 [1, 8]: > 1000 nM
- IC50 [2, 9]: 8.4 nM
- IC50 [2, 10]: 6.4 nM
- Maximal big-ET-induced contraction [3]: 91.57 percentage of the contractile responses induced by 80 mM of KCl

Compound: O=C(O)CN1C(=O)C(NC(=O)C2(CC(CCc3ccccc3)C(=O)O)CCCC2)CCc2ccccc21 (stereo not shown) [Cpd. of Formula IV, 2-[1-(1-carboxymethyl-2-oxo-2,3,4,5-tetrahydro-1H-benzo[b]azepin-3-ylcarbamoyl)-cyclopentylmethyl]-4-phenyl-butyric acid]
- Maximal big-ET-induced contraction [3]: 32.80 percentage of the contractile responses induced by 80 mM of KCl

Compound: Cc1nn(-c2ccccc2)c(NC(=O)NS(=O)(=O)c2ccc(Cl)cc2)c1C#N [SM-19712, reference compound]
- Maximal big-ET-induced contraction [3]: 85.10 percentage of the contractile responses induced by 80 mM of KCl

Compound: CCOP(=O)(CC1(C(=O)N[C@H]2CCc3ccccc3N(CC(=O)OC(C)(C)C)C2=O)CCCC1)OCc1ccccc1 (stereo partly drawn) [compound 2, (3S)-(3-{[1-(Benzyloxy-ethoxy-phosphorylmethyl)-cyclopentanecarbonyl]-amino}-2-oxo-2,3,4,5-tetrahydro-benzo[b]azepin-1-yl)-acetic acid tert-butyl ester]
- IC50 [1, 7]: 2.8 nM
- IC50 [1, 8]: 4 nM
- IC50 [2, 9]: 2.3 nM
- IC50 [2, 10]: 1.6 nM

Compound: CCOC(=O)C(CCc1ccccc1)CC1(C(=O)NC2CCc3ccccc3N(CC(=O)O)C2=O)CCCC1 (stereo not shown) [compound of Formula II, 2-[1-(1-carboxymethyl-2-oxo-2,3,4,5-tetrahydro-1H-benzo[b]azepin-3-ylcarbamoyl)-cyclopentylmethyl]-4-phenyl-butyric acid ethyl ester]
- IC50 [1, 7]: 0.7 nM
- IC50 [1, 8]: 3.5 nM
- IC50 [2, 11]: 7.5 nM
- IC50 [2, 12]: 3.3 nM

Compound: CCOC(=O)[C@H](CCc1cccc2ccccc12)CC1(C(=O)N[C@H]2CCc3ccccc3N(CC(=O)O)C2=O)CCCC1 [compound of Formula III, {(3S)-3-[({1-[(2R)-2-(ethoxycarbonyl)-4-(1-naphthyl)butyl]cyclopentyl}carbonyl)amino]-2-oxo-2,3,4,5-tetrahydro-1H-1-benzazepin-1-yl}acetic acid]
- IC50 [1, 7]: 2.2 nM
- IC50 [1, 8]: 2.9 nM
- IC50 [2, 11]: 6.6 nM
- IC50 [2, 12]: 4.2 nM

Compound: O=C(O)CN1C(=O)C(NC(=O)C2(CC(CCc3cccc4ccccc34)C(=O)O)CCCC2)CCc2ccccc21 (stereo not shown) [cpd. of Formula V, 2-[1-(1-carboxymethyl-2-oxo-2,3,4,5-tetrahydro-1H-benzo[b]azepin-3-ylcarbamoyl)-cyclopentylmethyl]-4-naphthalen-1-yl-butyric acid]
- Maximal big-ET-induced contraction [3]: 49.60 percentage of the contractile responses induced by 80 mM of KCl

Compound: CNP: C-type natriuretic peptide, substrate CNP (32-53), supplier Bachem
- degradation at t = 2 h by hSEP [4]: 46%
- degradation at t = 2 h by NEP [5]: 39%

Compound: VIP: vasoactive intestinal peptide, substrate, supplier Bachem
- degradation at t = 2 h by hSEP [4]: 36%
- degradation at t = 2 h by NEP [5]: 28%
- response rate (erections sufficient for sexual intercourse) [6]: 67%
